Results from patent US11406640B2, “JAK1 pathway inhibitors for the treatment of chronic lung allograft dysfunction” (Incyte Corporation, priority 2019, dated 2022).

Legend:
[1] = target: human JAK1 (Homo sapiens, UniProt P23458); assay: In vitro JAK kinase assay (Example A), JAK1; assay type: biochemical; conditions: 1 mM ATP
Source text: In some embodiments, the JAK1 pathway inhibitor is a compound of Table 2, or a pharmaceutically acceptable salt thereof.

[2] = target: human JAK2 (Homo sapiens (Human), UniProt O60674); assay: In vitro JAK kinase assay (Example A), JAK2; assay type: biochemical; conditions: JAK2/JAK1 IC50 ratio, 1 mM ATP
Experimental: The compounds in Table 2 were tested in this assay and shown to have the IC50 values in Table 2.

[3] = tested on: patients with BOS after lung transplantation; conditions: cited from earlier work

Chain of human JAK2 (O60674 828-1132): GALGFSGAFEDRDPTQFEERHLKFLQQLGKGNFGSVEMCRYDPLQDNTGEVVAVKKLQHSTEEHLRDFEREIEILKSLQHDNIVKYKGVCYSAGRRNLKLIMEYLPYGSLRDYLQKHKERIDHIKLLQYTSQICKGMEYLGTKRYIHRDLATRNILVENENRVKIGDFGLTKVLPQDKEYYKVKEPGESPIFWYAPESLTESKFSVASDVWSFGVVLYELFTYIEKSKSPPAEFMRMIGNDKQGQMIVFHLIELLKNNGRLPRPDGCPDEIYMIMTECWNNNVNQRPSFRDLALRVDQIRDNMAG

## N#CCC(C1CCN(c2cccc(Cl)n2)C1)n1cc(-c2ncnc3[nH]ccc23)cn1 (single isomer, unassigned) [Compound 6, 3-[1-(6-chloropyridin-2-yl)pyrrolidin-3-yl]-3-[4-(7H-pyrrolo[2,3-d]pyrimidin-4-yl)-1H-pyrazol-1-yl]propanenitrile]
[1]
  IC50: < 10 nM
[2]
  JAK2/JAK1: >10

## N#CCC1(n2cc(-c3ncnc4[nH]ccc34)cn2)CN(C2CCN(C(=O)Nc3ccc(F)cc3C(F)(F)F)CC2)C1 [Compound 2, 4-{3-(Cyanomethyl)-3-[4-(7H-pyrrolo[2,3-d]pyrimidin-4-yl)-1H-pyrazol-1-yl]azetidin-1-yl}-N-[4-fluoro-2-(trifluoromethyl)phenyl] piperidine-1-carboxamide]
[1]
  IC50: < 10 nM
[2]
  JAK2/JAK1: >10

## N#CCC1(n2cc(-c3ncnc4[nH]ccc34)cn2)CN(C2CCN(C(=O)c3ccnc(C(F)(F)F)n3)CC2)C1 [Compound 3, [3-[4-(7H-pyrrolo[2,3-d]pyrimidin-4-yl)-1H-pyrazol-1-yl]-1-(1-{[2-(trifluoromethyl)pyrimidin-4-yl]carbonyl}piperidin-4-yl)azetidin-3-yl]acetonitrile]
[1]
  IC50: < 10 nM
[2]
  JAK2/JAK1: >10

## C[C@@H](O)c1nc2cnc3ccsc3c2n1[C@H]1CC[C@H](CC#N)OC1 [Compound 5, ((2R,5S)-5-{2-[(1R)-1-hydroxyethyl]-1H-imidazo[4,5-d]thieno[3,2-b]pyridin-1-yl}tetrahydro-2H-pyran-2-yl)acetonitrile]
[1]
  IC50: < 100 nM
[2]
  JAK2/JAK1: >10

## N#CCC(C1CCN(c2nc3cccnc3o2)C1)n1cc(-c2ncnc3[nH]ccc23)cn1 (centres unmarked) [Compound 7, 3-(1-[1,3]oxazolo[5,4-b]pyridin-2-ylpyrrolidin-3-yl)-3-[4-(7H-pyrrolo[2,3-d]pyrimidin-4-yl)-1H-pyrazol-1-yl]propanenitrile]
[1]
  IC50: < 10 nM
[2]
  JAK2/JAK1: >10

## N#CCC(CN1CCN(C(=O)c2ccc(C#N)cc2F)CC1)n1cc(-c2ncnc3[nH]ccc23)cn1 (centres unmarked) [Compound 8, 4-[(4-{3-cyano-2-[4-(7H-pyrrolo[2,3-d]pyrimidin-4-yl)-1H-pyrazol-1-yl]propyl}piperazin-1-yl)carbonyl]-3-fluorobenzonitrile]
[1]
  IC50: < 10 nM
[2]
  JAK2/JAK1: >10

## N#CCC(CN1CCN(C(=O)c2ccc(C#N)cc2F)CC1)n1ccc(-c2ncnc3[nH]ccc23)c1 (centres unmarked) [Compound 9, 4-[(4-{3-cyano-2-[3-(7H-pyrrolo[2,3-d]pyrimidin-4-yl)-1H-pyrrol-1-yl]propyl}piperazin-1-yl)carbonyl]-3-fluorobenzonitrile]
[1]
  IC50: < 10 nM
[2]
  JAK2/JAK1: >10

## N#CC[C@]1(n2cc(-c3ncnc4[nH]ccc34)cn2)C[C@H](N2CCN(C(=O)c3ccnc(C(F)(F)F)n3)CC2)C1 [Compound 10, [trans-1-[4-(7H-pyrrolo[2,3-d]pyrimidin-4-yl)-1H-pyrazol-1-yl]-3-(4-{[2-(trifluoromethyl)pyrimidin-4-yl]carbonyl}piperazin-1-yl)cyclobutyl]acetonitrile]
[1]
  IC50: < 10 nM
[2]
  JAK2/JAK1: >10

## N#CC[C@]1(n2cc(-c3ncnc4[nH]ccc34)cn2)C[C@H](N2CCC(Oc3cc(CN4CC(O)C4)cc(C(F)(F)F)n3)CC2)C1 [Compound 11, {trans-3-(4-{[4-[(3-hydroxyazetidin-1-yl)methyl]-6-(trifluoromethyl)pyridin-2-yl]oxy}piperidin-1-yl)-1-[4-(7H-pyrrolo[2,3-d]pyrimidin-4-yl)-1H-pyrazol-1-yl]cyclobutyl}acetonitrile]
[1]
  IC50: < 10 nM
[2]
  JAK2/JAK1: >10

## N#CC[C@]1(n2cc(-c3ncnc4[nH]ccc34)cn2)C[C@H](N2CCC(Oc3cc(CN4CCC[C@H]4CO)cc(C(F)(F)F)n3)CC2)C1 [Compound 12, {trans-3-(4-{[4-{[(2S)-2-(hydroxymethyl)pyrrolidin-1-yl]methyl}-6-(trifluoromethyl)pyridin-2-yl]oxy}piperidin-1-yl)-1-[4-(7H-pyrrolo[2,3-d]pyrimidin-4-yl)-1H-pyrazol-1-yl]cyclobutyl}acetonitrile]
[1]
  IC50: < 10 nM
[2]
  JAK2/JAK1: >10

## N#CC[C@]1(n2cc(-c3ncnc4[nH]ccc34)cn2)C[C@H](N2CCC(Oc3cc(CN4CCC[C@@H]4CO)cc(C(F)(F)F)n3)CC2)C1 [Compound 13, {trans-3-(4-{[4-{[(2R)-2-(hydroxymethyl)pyrrolidin-1-yl]methyl}-6-(trifluoromethyl)pyridin-2-yl]oxy}piperidin-1-yl)-1-[4-(7H-pyrrolo[2,3-d]pyrimidin-4-yl)-1H-pyrazol-1-yl]cyclobutyl}acetonitrile]
[1]
  IC50: < 10 nM
[2]
  JAK2/JAK1: >10

## C[C@H](NC(=O)c1cc(F)c(N2CC(CC#N)(n3cc(-c4ncnc5[nH]ccc45)cn3)C2)cc1F)C(F)(F)F [Compound 16, 4-{3-(cyanomethyl)-3-[4-(7H-pyrrolo[2,3-d]pyrimidin-4-yl)-1H-pyrazol-1-yl]azetidin-1-yl}-2,5-difluoro-N-[(1S)-2,2,2-trifluoro-1-methylethyl]benzamide]
[1]
  IC50: < 10 nM
[2]
  JAK2/JAK1: >10

## N#CCC1(n2cc(-c3ncnc4[nH]ccc34)cn2)CN([C@H]2CC[C@@H](Oc3cc(CCO)nc(C(F)(F)F)n3)CC2)C1 [Compound 18, {1-(cis-4-{[6-(2-hydroxyethyl)-2-(trifluoromethyl)pyrimidin-4-yl]oxy}cyclohexyl)-3-[4-(7H-pyrrolo[2,3-d]pyrimidin-4-yl)-1H-pyrazol-1-yl]azetidin-3-yl}acetonitrile]
[1]
  IC50: < 10 nM
[2]
  JAK2/JAK1: >10

## CCNCc1cc(O[C@H]2CC[C@@H](N3CC(CC#N)(n4cc(-c5ncnc6[nH]ccc56)cn4)C3)CC2)nc(C(F)(F)F)c1 [Compound 19, {1-(cis-4-{[4-[(ethylamino)methyl]-6-(trifluoromethyl)pyridin-2-yl]oxy}cyclohexyl)-3-[4-(7H-pyrrolo[2,3-d]pyrimidin-4-yl)-1H-pyrazol-1-yl]azetidin-3-yl}acetonitrile]
[1]
  IC50: < 10 nM
[2]
  JAK2/JAK1: >10

## CC(C)(O)c1cc(O[C@H]2CC[C@@H](N3CC(CC#N)(n4cc(-c5ncnc6[nH]ccc56)cn4)C3)CC2)nc(C(F)(F)F)c1 [Compound 20, {1-(cis-4-{[4-(1-hydroxy-1-methylethyl)-6-(trifluoromethyl)pyridin-2-yl]oxy}cyclohexyl)-3-[4-(7H-pyrrolo[2,3-d]pyrimidin-4-yl)-1H-pyrazol-1-yl]azetidin-3-yl}acetonitrile]
[1]
  IC50: < 10 nM
[2]
  JAK2/JAK1: >10

## N#CCC1(n2cc(-c3ncnc4[nH]ccc34)cn2)CN([C@H]2CC[C@@H](Oc3cc(CN4CC[C@@H](O)C4)cc(C(F)(F)F)n3)CC2)C1 [Compound 21, {1-(cis-4-{[4-{[(3R)-3-hydroxypyrrolidin-1-yl]methyl}-6-(trifluoromethyl)pyridin-2-yl]oxy}cyclohexyl)-3-[4-(7H-pyrrolo[2,3-d]pyrimidin-4-yl)-1H-pyrazol-1-yl]azetidin-3-yl}acetonitrile]
[1]
  IC50: < 10 nM
[2]
  JAK2/JAK1: >10

## N#CCC1(n2cc(-c3ncnc4[nH]ccc34)cn2)CN([C@H]2CC[C@@H](Oc3cc(CN4CC[C@H](O)C4)cc(C(F)(F)F)n3)CC2)C1 [Compound 22, {1-(cis-4-{[4-{[(3S)-3-hydroxypyrrolidin-1-yl]methyl}-6-(trifluoromethyl)pyridin-2-yl]oxy}cyclohexyl)-3-[4-(7H-pyrrolo[2,3-d]pyrimidin-4-yl)-1H-pyrazol-1-yl]azetidin-3-yl}acetonitrile]
[1]
  IC50: < 10 nM
[2]
  JAK2/JAK1: >10

## C[C@@H](CO)NCc1cc(OC2CCN([C@H]3C[C@](CC#N)(n4cc(-c5ncnc6[nH]ccc56)cn4)C3)CC2)nc(C(F)(F)F)c1 [Compound 23, {trans-3-(4-{[4-({[(1S)-2-hydroxy-1-methylethyl]amino}methyl)-6-(trifluoromethyl)pyridin-2-yl]oxy}piperidin-1-yl)-1-[4-(7H-pyrrolo[2,3-d]pyrimidin-4-yl)-1H-pyrazol-1-yl]cyclobutyl}acetonitrile]
[1]
  IC50: < 10 nM
[2]
  JAK2/JAK1: >10

## C[C@@H](O)CNCc1cc(OC2CCN([C@H]3C[C@](CC#N)(n4cc(-c5ncnc6[nH]ccc56)cn4)C3)CC2)nc(C(F)(F)F)c1 [Compound 24, {trans-3-(4-{[4-({[(2R)-2-hydroxypropyl]amino}methyl)-6-(trifluoromethyl)pyridin-2-yl]oxy}piperidin-1-yl)-1-[4-(7H-pyrrolo[2,3-d]pyrimidin-4-yl)-1H-pyrazol-1-yl]cyclobutyl}acetonitrile]
[1]
  IC50: < 10 nM
[2]
  JAK2/JAK1: >10

## C[C@H](O)CNCc1cc(OC2CCN([C@H]3C[C@](CC#N)(n4cc(-c5ncnc6[nH]ccc56)cn4)C3)CC2)nc(C(F)(F)F)c1 [Compound 25, {trans-3-(4-{[4-({[(2S)-2-hydroxypropyl]amino}methyl)-6-(trifluoromethyl)pyridin-2-yl]oxy}piperidin-1-yl)-1-[4-(7H-pyrrolo[2,3-d]pyrimidin-4-yl)-1H-pyrazol-1-yl]cyclobutyl}acetonitrile]
[1]
  IC50: < 10 nM
[2]
  JAK2/JAK1: >10

## N#CC[C@]1(n2cc(-c3ncnc4[nH]ccc34)cn2)C[C@H](N2CCC(Oc3cc(CCO)cc(C(F)(F)F)n3)CC2)C1 [Compound 26, {trans-3-(4-{[4-(2-hydroxyethyl)-6-(trifluoromethyl)pyridin-2-yl]oxy}piperidin-1-yl)-1-[4-(7H-pyrrolo[2,3-d]pyrimidin-4-yl)-1H-pyrazol-1-yl]cyclobutyl}acetonitrile]
[1]
  IC50: < 10 nM
[2]
  JAK2/JAK1: >10

## CC(C)(O)c1ccccc1CC[C@@H](SCC1(CC(=O)O)CC1)c1cccc(/C=C/c2ccc3ccc(Cl)cc3n2)c1 [Montelukast]
[3]; overall cohort, 30 patients randomized vs placebo
  effect on lung function decline: no effect on lung function decline
[3]; post-hoc subanalysis of BOS grade 1 patients, absolute and predicted FEV1
  decline of FEV1: attenuated further decline of FEV1
